Bridge positions count the residues as written; N and C are the ends. Ends that are not written are not given here.
Key:
[1] = molecular target: human salivary α-amylase (HSA) (Homo sapiens, UniProt P0DUB6); test: Determination of Ki against human saliva α-amylase (Morrison); format: biochemical; conditions: 37 °C, 50 mM sodium phosphate, 100 mM NaCl, pH 7.0; CNPG3 3.3 mM (KM 3.4 mM), nominal [E] 100 nM; 10 min pre-incubation; 405 nm; Morrison fit, competitive mode assumed; mean ± SE (n = 3); read-out: Ki against HSA
human salivary α-amylase (HSA), sequence (P0DUB6 16-511): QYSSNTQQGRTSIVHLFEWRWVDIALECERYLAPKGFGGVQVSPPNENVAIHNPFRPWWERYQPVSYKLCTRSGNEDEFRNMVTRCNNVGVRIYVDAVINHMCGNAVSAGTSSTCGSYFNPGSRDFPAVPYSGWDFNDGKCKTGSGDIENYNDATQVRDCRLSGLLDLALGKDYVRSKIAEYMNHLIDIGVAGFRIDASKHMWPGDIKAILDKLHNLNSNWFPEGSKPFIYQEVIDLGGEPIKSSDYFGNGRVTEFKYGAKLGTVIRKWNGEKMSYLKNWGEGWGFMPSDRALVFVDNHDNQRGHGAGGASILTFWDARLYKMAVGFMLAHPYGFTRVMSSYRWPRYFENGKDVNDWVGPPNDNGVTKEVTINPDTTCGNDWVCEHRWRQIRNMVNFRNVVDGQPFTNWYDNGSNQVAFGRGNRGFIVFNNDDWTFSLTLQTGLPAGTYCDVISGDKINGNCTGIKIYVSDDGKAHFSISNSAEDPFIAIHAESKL
Method: For a quantitative assessment of tight-binding inhibitor potency, Morrison’s method was applied. This method uses the Morrison quadratic equation (Equation (1)) for fitting inhibitor-response data and determining Ki app as a nonlinear regression parameter. (1) υ/υo=1−([E]+[I]+Kiapp)−([E]+[I]+Kiapp)^2−4[E][I]/2[E]o
Kinetic assays were carried out at 37 °C in 50 mM sodium phosphate and 100 mM sodium chloride (pH 7.0). 2-Chloro-4-nitrophenyl-α-maltotrioside (CNPG3) (Sigma Aldrich, St. Louis, MO, USA) was used as the substrate and the optical absorption of the 2-chloro-4-nitrophenol was measured at 405 nm. Reactions were run with final [CNPG3] = 1 mM ([S]/KM = 1.41, KM = 0.71 mM), nominal [E] = 20 nM for PPA, [CNPG3] = 3.3 mM ([S]/KM = 0.97, KM = 3.4 mM), and nominal [E] = 100 nM for HSA to provide sufficient analytical signal. Inhibitor dilution schemes were optimized considering recommendations in [34].
The enzyme was pre-incubated with the inhibitor for 10 minutes before the addition of substrate which launched the reaction. Reactions were monitored on an xMark microplate spectrophotometer (BioRad, USA) in the kinetic mode for 30 min. The initial linear steady state region provided initial rate values for each inhibitor concentration (υ), along with uninhibited rate values (υo). Measurements were run in triplicate. […]

[2] = tested on: hKv3.1; test: Two-electrode voltage-clamp; format: cell-based, mammalian; conditions: 10 µM; Xenopus laevis oocytes; 18–22 °C
Description: (§1) For the expression of Nav channels (mammalian rNav1.2, rNav1.4, hNav1.5, mNav1.6 and hNav1.8 channels; the insect channel BgNav1 from Blattella germanica; and the auxiliary subunits rβ1, hβ1, and TipE) and Kv channels (mammalian rKv1.1, rKv1.2, hKv1.3, rKv1.4, rKv1.5, rKv1.6, rKv2.1, hKv3.1, rKv4.2, hKv10.1, and hERG; and Drosophila Shaker’s IR) in Xenopus laevis oocytes; the linearized plasmids were transcribed using the T7 or SP6 mMESSAGE-mMACHINE transcription kit (Ambion, Carlsbad, CA, USA). The harvesting of stage V–VI oocytes from anesthetized female Xenopus laevis frog was previously described. Oocytes were injected with 50 nL of cRNA at a concentration of 1 ng/nL using a microinjector (Drummond Scientific, Broomall, PA, USA). The oocytes were incubated in a solution containing 96-mM NaCl, 2-mM KCl, 1.8-mM CaCl2, 2-mM MgCl2, and 5-mM HEPES (pH 7.4), supplemented with 50 mg/L gentamycin sulfate.
(§2) Two-electrode voltage-clamp recordings were performed at room temperature (18–22 °C) using a Geneclamp 500 amplifier (Molecular Devices, Downingtown, PA, USA) controlled by a pClamp data acquisition system (Axon Instruments, Union City, CA, USA). Whole cell currents from oocytes were recorded 1–4 days after injection. The bath solution’s composition was 96-mM NaCl, 2-mM KCl, 1.8-mM CaCl2, 2-mM MgCl2, and 5-mM HEPES (pH 7.4). Toxins were applied directly to the bath. Resistances of both electrodes were kept between 0.8 and 1.5 MΩ. The elicited currents were sampled at 20 kHz (Nav) or 2 kHz (Kv), filtered at 2 kHz (Nav) or 0.5 kHz (Kv) using a four-pole low-pass Bessel filter. Leak subtraction was performed using a -P/4 protocol. […] For the electrophysiological analysis, a number of protocols were applied from a holding potential of −90 mV with a start-to-start interval of 0.2 Hz. Kv1.1–Kv1.6 and Shaker currents were evoked by 250-ms depolarizations to 0 mV followed by a 250 ms pulse to −50 mV from a holding potential of −90 mV. Current traces of hERG channels were elicited by applying a +40 mV prepulse for 2 s followed by −120 mV for 2 s. Kv2.1, Kv3.1, and Kv4.2 currents were elicited by 250 ms pulses to +20 mV from a holding potential of −90 mV. Kv10.1 currents were evoked by 2-s depolarizing pulses to 0 mV from a holding potential of −90 mV. Sodium current traces were evoked by 100-ms depolarization to the voltage corresponding to maximal sodium current in control conditions. All data were analyzed using pClamp Clampfit 10.0 (Molecular Devices, Downingtown, PA, USA) and Origin 7.5 software (Originlab, Northampton, MA, USA).

[3] = tested on: rKv1.5; test: Two-electrode voltage-clamp; format: cell-based, mammalian; conditions: 10 µM; Xenopus laevis oocytes; 18–22 °C
Description: as §1, §2

[4] = tested on: rKv1.2; test: Two-electrode voltage-clamp; format: cell-based, mammalian; conditions: 10 µM; Xenopus laevis oocytes; 18–22 °C
Description: as §1, §2

[5] = tested on: hKv1.3; test: Two-electrode voltage-clamp; format: cell-based, mammalian; conditions: 10 µM; Xenopus laevis oocytes; 18–22 °C
Description: as §1, §2

[6] = tested on: hERG; test: Two-electrode voltage-clamp; format: cell-based, mammalian; conditions: 10 µM; Xenopus laevis oocytes; 18–22 °C
Description: as §1, §2

[7] = tested on: rKv1.4; test: Two-electrode voltage-clamp; format: cell-based, mammalian; conditions: 10 µM; Xenopus laevis oocytes; 18–22 °C
Description: as §1, §2

[8] = tested on: hNav1.8; test: Two-electrode voltage-clamp; format: cell-based, mammalian; conditions: 10 µM; Xenopus laevis oocytes; 18–22 °C
Description: as §1, §2

[9] = tested on: rKv1.1; test: Two-electrode voltage-clamp; format: cell-based, mammalian; conditions: 10 µM; Xenopus laevis oocytes; 18–22 °C
Description: as §1, §2

## SEGTSCYIYHGVYGICKAKCAEDMKAMAGMGVCEGDLCCYKTPW (disulfide 6-38, 16-33, 20-39) [r-magnificamide]
[1]
  Ki: 7.7 ± 1.5 nM
[2]
  Channel modulating activity, Kv3.1: Not active
[3]
  Channel modulating activity, Kv1.5: Not active
[4]
  Channel modulating activity, Kv1.2: Not active
[5]
  Channel modulating activity, Kv1.3: Not active
[6]
  Channel modulating activity, hERG: Not active
[7]
  Channel modulating activity, Kv1.4: Not active
[8]
  Channel modulating activity, Nav1.8: Not active
[9]
  Channel modulating activity, Kv1.1: Not active

Source: paper PMC6835510, “Magnificamide, a β-Defensin-Like Peptide from the Mucus of the Sea Anemone Heteractis magnifica, Is a Strong Inhibitor of Mammalian α-Amylases” (Marine Drugs, 2019)
